Assay results as given in patent US9994554B2, “Barbiturate and thiobarbiturate compounds for use in cancer therapy” (NUHOPE, LLC, priority 2011, dated 2018).

What was measured:
[1] = molecular target: topoisomerase IIα (Homo sapiens, UniProt P11388); experiment: Supercoiled pHOT1 DNA relaxation assay; type: biochemical
[2] = test system: CCF-STTG1 cells; experiment: FITC-Annexin V/propidium iodide apoptosis assay; type: cell-based, human
Method: An FITC-labeled Annexin V/propidium iodide apoptosis assay kit (Molecular Probes) was used to determine whether CC-I induces apoptosis in an astrocytoma cell line. […] The percentage of apoptotic cells by the CC-I treatment in CCF-STTG1 cells is from 10.9±0.16% at 5 pig/ml ([…]) to 48.7±0.33% at 10 μg/ml (36.2 μM). By comparison, the positive control, actinomycin D, induced apoptosis in 47.8±0.04% of the cells at 0.05 μg/ml (39.8 nM).

[3] = test system: NF215; experiment: Cytotoxicity, NF215 neurofibroma cells; type: cell-based, human
Method: Cells of established neurofibroma cell lines were plated at a density of 2000-4000 cells per well in 96 well plates under standard cell culture conditions (54) and then exposed to CC-I for 2 days.

[4] = test system: U251; experiment: Cytotoxicity (MTS or SRB assay), U251; type: cell-based; conditions: human astrocytoma or glioblastoma cell line
Method: Human neuroblastoma cell lines were cultured in Dulbecco's Modified Eagle Medium (DMEM)/F12 media. Human glioma cells were ordered from American Type Culture Collection (ATCC, Manassas, Va.), and maintained in DMEM with 4×10^−3M L-glutamine, 100 U/ml penicillin, 100 μg/ml streptomycin, and 10% fetal bovine serum (FBS). All experiments were performed at 37° C. in 5% CO2 atmosphere under cell culture conditions. Prior to γ-radiation or exposure to chemotherapeutic agents, the glioma cells were plated at a density of 156 to 8,000 cells per well in 96 well plates to account for differences in growth rates, and to obtain similar cell densities for the experimental manipulations, and cultured overnight. […] Cell cytotoxicity assay was determined by MTS [3-(4,5-dimethylthiazol-2-yl)-5-(3-carboxymethoxyphenyl)-2-(4-sulfophenyl)-2H-tetrazolium, inner salt] Cell Proliferation Assay (Promega, Madison, Wis.) or sulforhodamine B (SRB) assay at the end of the exposure period (47, 48).

[5] = test system: A549 cells; experiment: pXC50 on A549 cells (later tests); type: cell-based
[6] = test system: U87-MG; experiment: cells
Method: (§1) Human neuroblastoma cell lines were cultured in Dulbecco's Modified Eagle Medium (DMEM)/F12 media. Human glioma cells were ordered from American Type Culture Collection (ATCC, Manassas, Va.), and maintained in DMEM with 4×10^−3M L-glutamine, 100 U/ml penicillin, 100 μg/ml streptomycin, and 10% fetal bovine serum (FBS). All experiments were performed at 37° C. in 5% CO2 atmosphere under cell culture conditions. Prior to γ-radiation or exposure to chemotherapeutic agents, the glioma cells were plated at a density of 156 to 8,000 cells per well in 96 well plates to account for differences in growth rates, and to obtain similar cell densities for the experimental manipulations, and cultured overnight. Then cells received different dosages of γ-radiation from a ^60Co source GammaCell 220 (Nordion International Inc, Ontario, Canada) or chemotherapeutic agents for another 2-6 days. Cell cytotoxicity assay was determined by MTS [3-(4,5-dimethylthiazol-2-yl)-5-(3-carboxymethoxyphenyl)-2-(4-sulfophenyl)-2H-tetrazolium, inner salt] Cell Proliferation Assay (Promega, Madison, Wis.) or sulforhodamine B (SRB) assay at the end of the exposure period (47, 48).
(§2) Chemotype moiety compounds of CC-I were also tested on the Temodar-resistant CCF-STTG1 and Temodar®-sensitive U87-MG cell lines. The glioma cell culture and treatment is as described above.
(§3) The human glioma CCF-STTG1 cell lines were plated at a density of 5,000 cells per well in 96 well plates under standard DMEM cell culture conditions and then exposed to different concentrations of CC-I, merbarone, or ICRF-193 for 5 days. Merbarone and ICRF-193 are both topoisomerase II inhibitors (55, 56).

[7] = test system: CCF-STTG1; experiment: cells
Method: as §1
Temodar®-resistant cell lines were used to screen for compounds having the ability to decelerate the growth of, or kill, Temodar®-resistant cells. The efficacy of over 15,000 different compounds in the Drug Discovery Core at Pennsylvania State Hershey Medical Center was tested on Temodar®-resistant human neuroblastoma SH-SY5Y and human glioma CCF-STTG1 cell lines with a colorimetric cytotoxicity assay, the sulforhodamine B (SRB) assay (53).
as §2, §3

topoisomerase IIα, sequence (P11388 whole entry): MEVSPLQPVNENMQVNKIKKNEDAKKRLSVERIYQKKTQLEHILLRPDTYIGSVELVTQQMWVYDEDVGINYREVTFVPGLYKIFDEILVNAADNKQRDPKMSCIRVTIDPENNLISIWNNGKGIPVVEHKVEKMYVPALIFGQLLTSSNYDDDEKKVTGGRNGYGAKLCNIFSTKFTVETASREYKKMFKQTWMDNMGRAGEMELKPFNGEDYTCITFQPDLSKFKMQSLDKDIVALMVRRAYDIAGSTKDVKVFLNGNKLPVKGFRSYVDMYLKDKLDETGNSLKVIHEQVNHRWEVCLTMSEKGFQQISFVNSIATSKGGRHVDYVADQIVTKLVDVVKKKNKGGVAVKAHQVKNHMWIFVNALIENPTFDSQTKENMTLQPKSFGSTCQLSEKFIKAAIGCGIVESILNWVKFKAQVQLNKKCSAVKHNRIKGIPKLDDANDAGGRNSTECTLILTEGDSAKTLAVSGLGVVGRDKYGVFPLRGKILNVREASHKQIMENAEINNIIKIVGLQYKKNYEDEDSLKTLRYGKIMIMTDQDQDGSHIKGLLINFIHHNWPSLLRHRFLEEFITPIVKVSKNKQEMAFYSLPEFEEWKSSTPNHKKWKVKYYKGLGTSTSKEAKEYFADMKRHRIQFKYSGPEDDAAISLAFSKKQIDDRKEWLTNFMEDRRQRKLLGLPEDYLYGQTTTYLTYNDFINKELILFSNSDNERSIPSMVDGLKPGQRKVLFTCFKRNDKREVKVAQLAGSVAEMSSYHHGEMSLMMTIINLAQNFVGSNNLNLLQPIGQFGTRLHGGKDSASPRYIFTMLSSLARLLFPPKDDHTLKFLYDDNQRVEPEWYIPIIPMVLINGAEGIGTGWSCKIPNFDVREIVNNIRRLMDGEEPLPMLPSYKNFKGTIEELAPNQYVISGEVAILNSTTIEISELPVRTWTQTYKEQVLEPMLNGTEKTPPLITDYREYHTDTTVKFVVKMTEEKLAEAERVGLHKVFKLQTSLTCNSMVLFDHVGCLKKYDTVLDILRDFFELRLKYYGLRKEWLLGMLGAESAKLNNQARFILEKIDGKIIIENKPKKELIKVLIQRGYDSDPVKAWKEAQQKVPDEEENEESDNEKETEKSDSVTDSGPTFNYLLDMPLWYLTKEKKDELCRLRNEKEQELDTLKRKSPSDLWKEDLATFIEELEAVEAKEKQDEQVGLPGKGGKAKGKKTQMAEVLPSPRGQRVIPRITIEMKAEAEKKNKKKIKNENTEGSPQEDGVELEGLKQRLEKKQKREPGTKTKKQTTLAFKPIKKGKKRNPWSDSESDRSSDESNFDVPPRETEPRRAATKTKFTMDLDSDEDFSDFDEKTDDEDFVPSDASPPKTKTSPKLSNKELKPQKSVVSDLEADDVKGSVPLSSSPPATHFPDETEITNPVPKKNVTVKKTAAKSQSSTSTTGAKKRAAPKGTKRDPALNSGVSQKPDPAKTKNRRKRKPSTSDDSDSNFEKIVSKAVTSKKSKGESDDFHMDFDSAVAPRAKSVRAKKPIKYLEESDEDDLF

CCN1C(=O)C(=C/C=C/c2ccco2)C(=O)NC1=S [CC-I]
concentration completely inhibiting topoisomerase IIα catalyzed pHOT1 relaxation [1]: greater than 3 μg/ml | most effective concentration on topoisomerase IIα activity [1]: 3 µg/mL | percentage of apoptotic cells ([2]; CCF-STTG1, at 10 μg/ml (36.2 μM)): 48.7±0.33% | percentage of apoptotic cells ([2]; CCF-STTG1, at 5 pig/ml (18.1 µM)): 10.9±0.16% | LD50 ([3]; NF215 neurofibroma cells, 2 days exposure): 1.4 µg/mL | IC50 ([3]; human neurofibroma cell line): 5.1 µM | IC50 [4]: 3.8 µM | pXC50 [5]: 4.5 | cytotoxicity compared with merbarone or ICRF-193 ([6]; U87-MG, 5 days): more cytotoxic | IC50 ([6]; read-out: IC50 (μM) U87-MG, human astrocytoma or glioblastoma cell line): 3.9 µM | cytotoxicity compared with merbarone or ICRF-193 ([7]; CCF-STTG1, 5 days): more cytotoxic | IC50 ([7]; read-out: IC50 (μM) CCF-STTG1, human astrocytoma or glioblastoma cell line, Temodar-resistant): 4.3 µM
